Laboratory results as given in paper PMC6269853, “Synthesis and Biological Evaluation of Unsymmetrical Curcumin Analogues as Tyrosinase Inhibitors” (Molecules, 2013).

Experiments:
[1] = molecular target: mushroom tyrosinase; assay: Diphenolase inhibitory activity of mushroom tyrosinase (L-DOPA oxidation, spectrophotometric); type: biochemical; details: for IC50: L-DOPA 0.5 mM, pH 6.8, 25 °C
Method: UCAs 3a–k, 4a–i were subjected to tyrosinase inhibitory assays by measuring the oxidation of L-DOPA according to the literature protocol.
The spectrophotometric assay for tyrosinase was performed according to the reported method with slight modifications. Briefly, all the synthesized compounds were screened for the diphenolase inhibitory activity of tyrosinase using L-DOPA as the substrate. All compounds were dissolved in DMSO. The final concentration of the test solution was 2.0%. Phosphate buffer (pH = 6.8) was used to dilute the DMSO stock solution of test compounds. Thirty units of mushroom tyrosinase (0.5 mg/mL) were firstly pre-incubated with these compounds in 50 mM phosphate buffer (pH = 6.8) at 25 °C for 10 min. L-DOPA (0.5 mM) was then added to the reaction mixture and the enzyme reaction was monitored by measuring the change in absorbance at 475 nm of the formation of L-DOPA chrome for 1 min. The measurement was performed for three times for each concentration and averaged before further calculations. IC50 values were determined by the interpolation of the dose–response curves.

[2] = tested on: mushroom tyrosinase; assay: Inhibition kinetics by Lineweaver-Burk plots; type: biochemical; details: oxidation of L-DOPA
Method: The inhibitory mechanism of selected compounds 3c, 3d, 3i and 3j against mushroom tyrosinase during the oxidation of L-DOPA was determined by the same methods. […] However, 3d and 3j containing m-dihydroxyl groups on ring B were competitive inhibitors because the intersection of those straight lines was on the Y-axis.
Concentrations of 3c, 3d, 3i and 3j for curves 1–3 were 0.0 μM, 4.06 μM, 12.18 μM; 0.0 μM, 4.06 μM, 16.23 μM; 0.0 μM, 14.8 μM, 59.2 μM; 0.0 μM, 3.70 μM, 11.09 μM, respectively.
Pre-incubation and measurement time was the same as the procedure in section 3.3. Maximal initial velocity was determined from initial linear portion of absorbance between 0 and 60 s after addition of mushroom tyrosinase. The inhibition type on the enzyme was assayed by Lineweaver–Burk plots, and the inhibition constant was determined by the second plots of the apparent Km/Vm or 1/Vm versus the concentration of compound. The same procedure was executed for other compounds.

[3] = tested on: CD-1 mice; assay: Acute oral toxicity in mice (OECD 423); type: in vivo; details: for Body Weight: last day; for Drinking Water / Food Intake: measured daily and averaged; for autopsy, changes in organs: mice, 1,200 mg/kg, end of experimental period (14 days)
Method: 3d and 3j were used as the representative compounds to evaluate the toxicity in mice.
The acute toxicity of compound 3d was examined according to the OECD 423 Guideline for Testing of Chemicals Acute Oral Toxicity – Acute Toxic Class Method procedures. The test procedure was applied with an initial dose at 1,200 mg/kg. Male and female CD-1 mice (six males and six females; 7~8 weeks old) were obtained from Center of Animal Test of the Sun Yat-sen University, housed in the University-approved animal facility in rooms maintained at 22 ± 2 °C with 55%–60% humidity and 12 h photoperiod. After five-day adaptation to laboratory conditions, mice were divided into four equal groups (controls: male, female, and treated: male and female, three animals in each group, equal body mass) and given by gavage either a single dosage of 1,200 mg 3d (dispersed in 3% Tween 80 aqueous solution)/kg, and equal volumes of distilled water containing 3% Tween 80 for control groups, using a suitably graduated syringe and a stainless steel intubation cannula. Mice had free access to distilled water and commercial standard diet. Animals were observed individually after dosing at least once during the first 30 min, periodically during the first 24 h, with special attention given during the first 4 h, and daily thereafter, for a total of 14 days. All observations were systematically recorded with individual records being maintained for each animal. Individual body weight of animals was determined shortly before the test substance was administered and weekly thereafter. All the animals were sacrificed at the end of the observation period and subjected to a necropsy. The same procedure was performed for compound 3j.

Row | Compound | IC50 [1] [µM] | melting point [°C] | further results
1 | CCCCc1ccc(O)cc1O [4-Butylresorcinol, reference compound] | 11.3 | – | –
2 | COc1ccc(C=C2CCC(=Cc3ccc(O)cc3)C2=O)cc1 [Compound 3a, 2-(4-Hydroxybenzylidene)-5-(4-methoxybenzylidene)cyclopentanone] | 189 | 241 to 243 | –
3 | COc1cc(C=C2CCC(=Cc3ccc(O)cc3)C2=O)ccc1O [Compound 3b, 2-(4-Hydroxy-3-methoxybenzylidene)-5-(4-hydroxybenzylidene)cyclopentanone] | 56.6 | 278 to 280 | fold difference in activity versus 3c ([1]; decrease relative to 3c): > 8 fold
4 | O=C1C(=Cc2ccc(O)cc2)CCC1=Cc1ccc(O)c(O)c1 [Compound 3c, 2-(3,4-Dihydroxybenzylidene)-5-(4-hydroxybenzylidene)cyclopentanone] | 7.78 | > 300 | inhibition type [2]: mixed-competitive
5 | O=C1C(=Cc2ccc(O)cc2)CCC1=Cc1ccc(O)cc1O [Compound 3d, 2-(2,4-Dihydroxybenzylidene)-5-(4-hydroxybenzylidene)cyclopentanone] | 1.74 | – | fold lower IC50 than kojic acid [1]: about 16 fold; course of enzyme activity inhibition ([1]; diphenolase activity, L-DOPA, 25 °C, Figure 1): concentration-dependent; fold lower IC50 than 4-butylresorcinol ([1]; vs 4-butylresorcinol (11.27 μM)): ~6 fold; Body Weight ([3]; female CD-1 mice, 1,200 mg/kg): 27.3 ± 2.9 g; Drinking Water ([3]; female CD-1 mice, 1,200 mg/kg): 4.2 ± 0.5 mL/day; Food Intake ([3]; female CD-1 mice, 1,200 mg/kg): 4.0 ± 0.4 g/day; Body Weight ([3]; male CD-1 mice, 1,200 mg/kg): 30.9 ± 2.6 g; Drinking Water ([3]; male CD-1 mice, 1,200 mg/kg): 5.6 ± 0.6 mL/day; Food Intake ([3]; male CD-1 mice, 1,200 mg/kg): 5.1 ± 0.5 g/day; autopsy, changes in organs [3]: no apparent changes; inhibition type [2]: competitive
6 | COc1cc(C=C2CCC(=Cc3ccc(O)cc3)C2=O)cc(OC)c1O [Compound 3e, 2-(4-Hydroxy-3,5-dimethoxybenzylidene)-5-(4-hydroxybenzylidene)cyclopentanone] | 9.66 | 259 to 261 | –
7 | CC(C)(C)c1cc(C=C2CCC(=Cc3ccc(O)cc3)C2=O)cc(C(C)(C)C)c1O [Compound 3f, 2-(3,5-Di-tert-butyl-4-hydroxybenzylidene)-5-(4-hydroxybenzylidene)cyclopentanone] | 168 | 233 to 235 | –
8 | COc1cc(C=C2CCC(=Cc3ccc(O)cc3)C2=O)cc(Br)c1O [Compound 3g, 2-(3-Bromo-4-hydroxy-5-methoxybenzylidene)-5-(4-hydroxybenzylidene)cyclopentanone] | 173 | 241 to 243 | –
9 | O=C1C(=Cc2ccc(O)cc2)CCC1=Cc1cc(Br)c(O)c(Br)c1 [Compound 3h, 2-(3,5-Dibromo-4-hydroxybenzylidene)-5-(4-hydroxybenzylidene)cyclopentanone] | > 200 | 286 to 288 | –
10 | COc1cc(C=C2CCC(=Cc3ccc(O)c(O)c3)C2=O)ccc1O [Compound 3i, 2-(3,4-Dihydroxybenzylidene)-5-(4-hydroxy-3-methoxybenzylidene)cyclopentanone] | – | > 300 | inhibition type [2]: mixed-competitive
11 | COc1cc(C=C2CCC(=Cc3ccc(O)cc3O)C2=O)ccc1O [Compound 3j, 2-(2,4-Dihydroxybenzylidene)-5-(4-hydroxy-3-methoxybenzylidene)cyclopentanone] | – | – | Body Weight ([3]; female CD-1 mice, 1,200 mg/kg): 26.9 ± 2.1 g; Drinking Water ([3]; female CD-1 mice, 1,200 mg/kg): 4.1 ± 0.4 mL/day; Food Intake ([3]; female CD-1 mice, 1,200 mg/kg): 3.9 ± 0.5 g/day; Body Weight ([3]; male CD-1 mice, 1,200 mg/kg): 30.1 ± 2.8 g; Drinking Water ([3]; male CD-1 mice, 1,200 mg/kg): 5.4 ± 0.5 mL/day; Food Intake ([3]; male CD-1 mice, 1,200 mg/kg): 5.2 ± 0.4 g/day; autopsy, changes in organs [3]: no apparent changes; inhibition type [2]: competitive
12 | COc1cc(C=C2CCC(=Cc3cc(OC)c(O)c(OC)c3)C2=O)ccc1O [Compound 3k, 2-(4-Hydroxy-3,5-dimethoxybenzylidene)-5-(4-hydroxy-3-methoxybenzylidene)cyclopentanone] | > 200 | 129 to 131 | –

Now from value to compound, other results behind:

Row | IC50 [1] [µM] | melting point [°C] | Compound | further results
13 | > 200 | – | 1-(3,4-Dihydroxyphenyl)-5-(4-hydroxy-3-methoxyphenyl)penta-1,4-dien-3-one [Compound 4g] | –
14 | > 200 | – | 1-(3,4-Dihydroxyphenyl)-5-(4-methoxyphenyl)penta-1,4-dien-3-one [Compound 4i] | –
15 | < 100 | – | 1-(4-Hydroxy-3,5-dimethoxyphenyl)-5-(4-hydroxy-3-methoxyphenyl)penta-1,4-dien-3-one [Compound 4h] | fold difference in activity versus 4c ([1]; decrease relative to 4c (IC50 = 4.64 μM)): > 16 fold
16 | 183 | 114 to 116 | COc1ccc(C=CC(=O)C=Cc2ccc(O)cc2)cc1 [Compound 4a, 1-(4-Hydroxyphenyl)-5-(4-methoxyphenyl)penta-1,4-dien-3-one] | –
17 | 46.2 | 98 to 101 | COc1cc(C=CC(=O)C=Cc2ccc(O)cc2)ccc1O [Compound 4b, 1-(4-Hydroxy-3-methoxyphenyl)-5-(4-hydroxyphenyl)penta-1,4-dien-3-one] | –
18 | 4.64 | 181 to 183 | O=C(C=Cc1ccc(O)cc1)C=Cc1ccc(O)c(O)c1 [Compound 4c, 1-(3,4-Dihydroxyphenyl)-5-(4-hydroxyphenyl)penta-1,4-dien-3-one] | –
19 | 7.2 | 93 to 95 | COc1cc(C=CC(=O)C=Cc2ccc(O)cc2)cc(OC)c1O [Compound 4d, 1-(4-Hydroxy-3,5-dimethoxyphenyl)-5-(4-hydroxyphenyl)penta-1,4-dien-3-one] | –
20 | > 200 | 110 to 113 | O=C(C=Cc1ccc(O)cc1)C=Cc1cc(Br)c(O)c(Br)c1 [Compound 4e, 1-(3,5-Dibromo-4-hydroxyphenyl)-5-(4-hydroxyphenyl)penta-1,4-dien-3-one] | –
